Values quoted from earlier work as cited in patent US5266487A, “Apparatus for the treatment of lignocellulosic materials” (Knobbe, Martens, Olson & Bear, priority 1992, dated 1993).
Like-named read-outs stand apart in the source and are kept apart here.

Molecular target: alcohol oxidase (methanol oxidase), preferred enzyme from Hansenula polymorpha ATCC 34438 (Pichia angusta, UniProt P04841)
Sequence (P04841 whole entry): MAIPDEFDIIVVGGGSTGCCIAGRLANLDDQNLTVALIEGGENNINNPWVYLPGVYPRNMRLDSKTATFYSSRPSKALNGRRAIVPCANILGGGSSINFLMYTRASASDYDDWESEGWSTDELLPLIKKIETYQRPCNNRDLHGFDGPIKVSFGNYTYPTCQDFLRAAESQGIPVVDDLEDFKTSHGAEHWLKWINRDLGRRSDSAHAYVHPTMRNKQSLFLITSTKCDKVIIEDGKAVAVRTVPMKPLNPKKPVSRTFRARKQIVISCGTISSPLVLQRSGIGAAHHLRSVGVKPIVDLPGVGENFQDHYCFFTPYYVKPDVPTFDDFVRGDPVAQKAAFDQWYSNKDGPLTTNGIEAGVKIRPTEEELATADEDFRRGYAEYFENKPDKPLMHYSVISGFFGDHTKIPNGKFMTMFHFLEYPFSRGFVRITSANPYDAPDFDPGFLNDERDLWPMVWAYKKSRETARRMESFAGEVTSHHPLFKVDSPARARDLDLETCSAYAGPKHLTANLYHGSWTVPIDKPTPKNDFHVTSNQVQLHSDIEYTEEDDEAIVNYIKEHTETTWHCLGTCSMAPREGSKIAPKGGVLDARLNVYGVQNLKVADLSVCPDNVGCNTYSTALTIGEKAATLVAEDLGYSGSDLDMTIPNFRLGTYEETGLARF

| Km (read-out: Km oxygen, see Van Dijken et al., Arch. Microbiol. 111, 137 (1976)) | Structure (SMILES) | Km (read-out: Km methanol, see Van Dijken et al., Arch. Microbiol. 111, 137 (1976)) |
| --- | --- | --- |
| – | CO [methanol] | 2000 µM |
| 400 µM | O=O [oxygen] | – |
